# Results from US12150995B2, “IRAK degraders and uses thereof” (Kymera Therapeutics, Inc., priority 2020, dated 2024).
# Target: T1, IRAK4 (Homo sapiens, UniProt Q9NWZ3)
# T1 construct: endogenous in cells; host or cells: OCI-LY10
# T1 sequence (Q9NWZ3 1-460): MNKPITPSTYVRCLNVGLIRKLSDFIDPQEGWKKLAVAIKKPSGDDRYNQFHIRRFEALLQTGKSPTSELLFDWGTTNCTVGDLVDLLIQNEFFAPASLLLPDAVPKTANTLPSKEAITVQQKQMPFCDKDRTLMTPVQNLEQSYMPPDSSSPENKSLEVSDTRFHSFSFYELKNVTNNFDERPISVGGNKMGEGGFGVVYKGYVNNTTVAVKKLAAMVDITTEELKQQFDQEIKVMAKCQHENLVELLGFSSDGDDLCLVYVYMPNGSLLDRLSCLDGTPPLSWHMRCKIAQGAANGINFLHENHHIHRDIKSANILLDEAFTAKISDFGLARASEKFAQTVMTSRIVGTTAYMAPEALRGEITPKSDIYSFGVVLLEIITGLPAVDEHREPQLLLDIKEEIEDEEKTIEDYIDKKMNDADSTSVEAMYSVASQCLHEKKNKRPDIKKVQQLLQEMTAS
# Experiment: IRAK4 MSD Degradation in OCI-LY10
# Format: cell-based
# Conditions: OCI-LY10 cells, Meso Scale Discovery, incubated 4 to 24 hours
# Protocol: Degradation of IRAK4 in OCI-LY10 was quantitatively measured using Meso Scale Discovery technology. OCI-LY10 cells were seeded in 96-well plates (Corning 3799) with a density of 300,000 cells per well in 100 μL fresh media. Compounds were then added to the assay plates with a final top concentration of 1 to 10 μM in a 1:3 dilution series with total of 8 doses. The assay plates were then incubated for 4 to 24 hours at 37° C. under 5% CO2. The assay plates were then centrifuged for 5 minutes and the cell pellets were treated with 100 μL/well RIPA lysis buffer (Boston BioProducts BP-115D) with proteinase inhibitors. To prepare MSD assay plates (Meso Scale Discovery Catalog number L15XA-3), the plates were coated with 2 μg/mL capture antibody (mouse Anti-IRAK4 antibody [2H9], ab119942) in PBS, at 40 μL/well. The plates were then incubated overnight at 4° C., washed 3 times with 150 μL/well TBST buffer (Cell Signaling Technology, Catalog number 9997S) and blocked with 150 μL/well blocking buffer (Meso Scale Discovery Catalog number R93BA-4). Cell lysates were then added to MSD assay plates and the plates were incubated at room temperature for 1 hour. The plates were then washed 3 times with 150 μL/well TBST buffer and […] primary detection antibody (rabbit Anti-IRAK4 antibody [Y279], from Abcam. Catalog number ab32511, 1 μg/mL). The assay plates were then incubated at room temperature for 1 hour, washed 3 times with 150 μL/well TBST buffer and 254/well secondary detection antibody, SULFO-TAG anti-rabbit antibody were added (anti rabbit antibody from Meso Scale Discovery, Catalog number R32AB-1, 1 μg/mL). The assay plates were then incubated at room temperature for 1 hour, washed 3 times with 150 μL/well TBST buffer, and 150 μL/well MSD reading buffer (Meso Scale Discovery catalog number R92TC-2) was added. The plates were then analyzed by a MSD reader (Meso Scale Discovery, Model Quick Plex SQ 120). The data was then analyzed by software Prism 7.0 from GraphPad and the dose-depended IRAK4 degradation were fit using a three-parameter logistic equation to calculate DC50.
# The letter codes for IRAK4 DC50 include: A (<0.01 μM); B (0.01-0.05 μM); C (0.05-0.1 μM); D (0.1-0.2 μM); and E (>0.2 μM).
row,Compound,DC50
1,"Cn1c(=O)n(C2CCC(=O)NC2=O)c2cccc(N3CC4CC(C3)N4C[C@H]3CC[C@@H](n4cc5cc(NC(=O)c6cccc(C(F)(F)F)n6)ccc5n4)CC3)c21 (single isomer, unassigned) [I-156, N-[2-[4-[[3-[1-(2,6-dioxo-3-piperidyl)-3-methyl-2-oxo-benzimidazol-4-yl]-3,6-diazabicyclo[3.1.1]heptan-6-yl]methyl]cyclohexyl]indazol-5-yl]-6-(trifluoromethyl)pyridine-2-carboxamide]",> 200 nM
2,"Cn1c(=O)n(C2CCC(=O)NC2=O)c2cccc(N3CC4CC(C3)N4C[C@H]3CC[C@H](n4cc5cc(NC(=O)c6cccc(C(F)(F)F)n6)ccc5n4)CC3)c21 (single isomer, unassigned) [I-157, N-[2-[4-[[3-[1-(2,6-dioxo-3-piperidyl)-3-methyl-2-oxo-benzimidazol-4-yl]-3,6-diazabicyclo[3.1.1]heptan-6-yl]methyl]cyclohexyl]indazol-5-yl]-6-(trifluoromethyl)pyridine-2-carboxamide]",50 to 100 nM
3,CN(C[C@H]1CC[C@H](n2cc3cc(NC(=O)C4CC4)c(C(C)(C)O)cc3n2)CC1)C1CCN(Cc2cccc3c2n(C)c(=O)n3C2CCC(=O)NC2=O)CC1 (stereo partly shown) [I-1],> 200 nM
4,O=C1CCC(N2C(=O)c3cccc(NCCC4CC5(C4)CN(C[C@H]4CC[C@H](n6cc7cc(NC(=O)c8cccc(C(F)(F)F)n8)c(OC8CC8)cc7n6)CC4)C5)c3C2=O)C(=O)N1 (stereo partly shown) [I-2],> 200 nM
5,COc1cc2nc([C@H]3CC[C@H](CN4CC5(CC(CCNc6cccc7c6C(=O)N(C6CCC(=O)NC6=O)C7=O)C5)C4)CC3)n(C)c2cc1NC(=O)c1cccc(C(F)(F)F)n1 (stereo partly shown) [I-3],50 to 100 nM
6,COc1cc2nn([C@H]3CC[C@H](CN4CCC5(CC4)CC(CNc4cccc6c4C(=O)N(C4CCC(=O)NC4=O)C6=O)C5)CC3)cc2cc1NC(=O)c1cccc(C(C)(F)F)n1 (stereo partly shown) [I-4],50 to 100 nM

# The remaining lines, values ahead:
row,DC50,Compound
1,10 to 50 nM,"Cn1c(=O)n(C2CCC(=O)NC2=O)c2cccc(C3C[C@H]4CC[C@@H](C3)N4C[C@H]3CC[C@H](n4cc5cc(NC(=O)c6cccc(C(F)(F)F)n6)ccc5n4)CC3)c21 (single isomer, unassigned) [I-250]"
2,< 10 nM,"Cn1c(=O)n(C2CCC(=O)NC2=O)c2cccc(C3CC4CCC(C3)N4C[C@H]3CC[C@H](n4cc5cc(NC(=O)c6cccc(C(F)(F)F)n6)ccc5n4)CC3)c21 (single isomer, unassigned) [I-251]"
3,10 to 50 nM,"COc1ccc2c(c1C1CCN(C[C@H]3CC[C@H](n4cc5cc(NC(=O)c6cccc(C(F)(F)F)n6)ncc5n4)CC3)CC1)n(C)c(=O)n2[C@@H]1CCC(=O)NC1=O (single isomer, unassigned) [I-274]"
4,< 10 nM,"COc1cc2nn([C@H]3CC[C@H](CN4CC[C@H](c5cccc6c5n(C)c(=O)n6C5CCC(=O)NC5=O)CC4(C)C)CC3)cc2cc1NC(=O)c1cccc(C(F)(F)F)n1 (single isomer, unassigned) [I-292]"
5,10 to 50 nM,"Cc1cc2nn([C@H]3CC[C@H](CN4CCC(c5cccc6c5n(C)c(=O)n6[C@H]5CCC(=O)NC5=O)CC4)CC3)cc2cc1NC(=O)c1cccc(C(F)(F)F)n1 (single isomer, unassigned) [I-390]"
6,< 10 nM,"COc1cc2nn([C@H]3CC[C@H](CN(C)[C@H]4CC[C@H](c5cccc6c5n(C)c(=O)n6C5CCC(=O)NC5=O)CC4)CC3)cc2cc1NC(=O)c1cccc(C(F)(F)F)n1 (stereo partly shown) [I-5, N-[2-[4-[[[4-[1-(2,6-dioxo-3-piperidyl)-3-methyl-2-oxo-benzimidazol-4-yl]cyclohexyl]-methyl-amino]methyl]cyclohexyl]-6-methoxy-indazol-5-yl]-6-(trifluoromethyl)pyridine-2-carboxamide]"
7,< 10 nM,"COc1cc2nn([C@H]3CC[C@H](CN(C)[C@H]4CC[C@@H](c5cccc6c5n(C)c(=O)n6C5CCC(=O)NC5=O)CC4)CC3)cc2cc1NC(=O)c1cccc(C(F)(F)F)n1 (stereo partly shown) [I-6, N-[2-[4-[[[4-[1-(2,6-dioxo-3-piperidyl)-3-methyl-2-oxo-benzimidazol-4-yl]cyclohexyl]-methyl-amino]methyl]cyclohexyl]-6-methoxy-indazol-5-yl]-6-(trifluoromethyl)pyridine-2-carboxamide]"
